Measurements reported in US20040138188A1, “Use of TGF-beta inhibitors to counteract pathologic changes in the level or function of steroid/thyroid receptors” (priority 2002, published 2004).

Tests used:
Format in all cases: cell-based
[1] = tested on: steroid/thyroid receptors; experiment: cDNA microarray, TGFβ1-induced down-regulation of steroid/thyroid receptors in human lung fibroblasts; details: 5 ng/ml TGFβ1
Description: Human lung fibroblasts (Cambrex Bio Science) from a person were seeded at 4×10^5 cells (passage 4) in 100 mm dishes and cultured in complete FGM medium (Cambrex Bio Science). The next day, medium was changed to FGM without serum or fibroblast growth factor, but supplemented with 0.2% bovine serum albumin and 50 μg/m; Vitamin C. Cells were serum deprived for 24 hours prior to treating with 5 ng/ml TGFβ1 (R&D Systems) in the presence or absence of 400 nM Compound No. 79. Induction with TGFβ was carried out for various times (7.5 hours, 24 hours, and 3 days) after which RNA was harvested by lysing the cells in RLT buffer (Qiagen) and frozen at −80° C.
(§1) Gene expression profiles were determined from cDNA microarrays containing approximately 9000 elements derived from clones isolated from normalized cDNA libraries or purchased from ResGen (Invitrogen Life Technologies, Carlsbad, Calif.). […]
(§2) Total RNA was extracted from cells using Qiagen's RNeasy kit. […] Hybridization of each fluorophore was quantified using an Axon GenePix 4000A scanner.
Differential expression values were expressed as the ratio of the median of background-subtracted fluorescent intensity of the experimental RNA to the median of background-subtracted fluorescent intensity of the control RNA. For ratios greater than or equal to 1.0, the ratio was expressed as a positive value. […]

glucocorticoid receptor [2] = experiment: cDNA microarray, TGFβ1-induced down-regulation of glucocorticoid receptor in rat lung fibroblasts (RLF); details: 15 ng/ml TGFβ1, 24 hours
Description: Rat lung fibroblasts (RLF) were isolated from perfused rat lung by physical and enzymatic dissociation of lung tissue. […] RLFs were cultured in FGM-2 with 2% FBS (Clonetics # CC-3132). Cells were serum starved for 24 hours, followed by the treatment with 15 ng/ml TGFβ1 (R&D System) or co-treatment with 1 μM Compound No. 81 or 0.1 μM Compound No. 74 for 24 hours.
as §1, §2
(§3) Differential expression values were expressed as the ratio of the median of background-subtracted fluorescent intensity of the experimental RNA to the median of background-subtracted fluorescent intensity of the control RNA. For ratios greater than or equal to 1.0, the ratio was expressed as a positive value. For ratios less than 1.0, the ratio was expressed as the negative reciprocal (i.e., a ratio of 0.5=−2.0). […] Differential expression ratios were determined as the mean of the two values from dye-swapped duplicates. […]

glucocorticoid receptor [3] = experiment: cDNA microarray, TGFβ1-induced down-regulation of glucocorticoid receptor in normal rat kidney cells (NRK); details: 5 ng/ml huTGF-b1, 24 hours
Description: Normal rat kidney cells (NRK) were cultured in DMEM-21 (high glucose)/10% FCS at 37° C., 5% CO2. Cells were serum starved for 24 hr before treated with 5 ng/ml huTGF-b1 (R&D System) or co-treatment with 1 μM Compound No. 81 or 0.1 μM Compound No. 74 for 24 hours.
Gene expression profiles were determined from cDNA microarrays containing approximately 9000 elements derived from clones isolated from normalized cDNA libraries or purchased from ResGen (Invitrogen Life Technologies, Carlsbad, Calif.). DNA for spotting was generated by PCR amplification using 5′amino-modified primers (BD Biosciences Clontech, Palo Alto, Calif.) derived from flanking vector sequences. […]
as §2, §3

expression of seven members of the steroid nuclear receptor family, including glucocorticoid receptor and retinoid receptor C alpha [1]: down-regulates
down-regulation of glucocorticoid receptor expression at the transcriptional level (glucocorticoid receptor [2]): 2 fold
Substance: TGF-β1: huTGF-b1 (R&D System), transforming growth factor-beta 1, used to induce receptor down-regulation
down-regulation of glucocorticoid receptor expression at the transcriptional level (glucocorticoid receptor [3]): 2 fold
